# Reference: patent US12297453B2, “Generation of norepinephrine neurons from human stem cells” (Wisconsin Alumni Research Foundation, priority 2020, dated 2025)
# B1: BMP7: bone morphogenetic protein (protein, UniProt P18075 293-431, looked up)
# Bone morphogenetic protein 7: STGSKQRSQNRSKTPKNQEALRMANVAENSSSDQRQACKKHELYVSFRDLGWQDWIIAPEGYAAYYCEGECAFPLNSYMNATNHAIVQTLVHFINPETVPKPCCAPTQLNAISVLYFDDSSNVILKKYRNMVVRACGCH
# B2: BMP4: bone morphogenetic protein (protein, UniProt P12644 293-408, looked up)
# Bone morphogenetic protein 4: SPKHHSQRARKKNKNCRRHSLYVDFSDVGWNDWIVAPPGYQAFYCHGDCPFPLADHLNSTNHAIVQTLVNSVNSSIPKACCVPTELSAISMLYLDEYDKVVLKNYQEMVVEGCGCR
# B3: FGF8: growth factor tested for NE fate specification (protein, UniProt P55075 23-233, looked up)
# Fibroblast growth factor 8: QEGPGRGPALGRELASLFRAGREPQGVSQQHVREQSLVTDQLSRRLIRTYQLYSRTSGKHVQVLANKRINAMAEDGDPFAKLIVETDTFGSRVRVRGAETGLYICMNKKGKLIAKSNGKGKDCVFTEIVLENNYTALQNAKYEGWYMAFTRKGRPRKGSKTRQHQREVHFMKRLPRGHHTTEQSLRFEFLNYPPFTRSLRGSQRTWAPEPR
# B4: BMP5: bone morphogenetic protein (protein, UniProt P22003 317-454, looked up)
# Bone morphogenetic protein 5: AANKRKNQNRNKSSSHQDSSRMSSVGDYNTSEQKQACKKHELYVSFRDLGWQDWIIAPEGYAAFYCDGECSFPLNAHMNATNHAIVQTLVHLMFPDHVPKPCCAPTKLNAISVLYFDDSSNVILKKYRNMVVRSCGCH
# B5: Activin A: ligand in TGF-β pathway directing NE cell fate specification (protein, UniProt P08476 311-426, looked up)
# Inhibin beta A chain: GLECDGKVNICCKKQFFVSFKDIGWNDWIIAPSGYHANYCEGECPSHIAGTSGSSLSFHSTVINHYRMRGHSPFANLKSCCVPTKLRPMSMLYYDDGQNIIKKDIQNMIVEECGCS
# What was measured:
# Type in all cases: cell-based, human
# [1] = tested on: hESCs (H9 line); test: Patterning of hESCs to hindbrain R1 neuroepithelial cells with a CHIR99021 dose series (RT-qPCR, flow cytometry, immunocytochemistry)
# Method: (§1) On day 5, change the medium without SB431542. […] Cells were feed daily.
# gRNA was designed according to Benchling. Donor plasmid was generated by NEBuilder® HiFi DNA Assembly Master Mix (NEB, E2621S). Briefly, hPSCs were digested by TrypLE Express. Gene Pulser Xcell (Bio-Rad) was used for CRISPR/Cas9 delivery. Two-million cells were electroporated with 15 μg of sgRNA plasmid (pLenti-CRISPR) with 30 μg donor plasmid. Cells were plated at ˜150,000 cells/well of 6-well plate. Starting 24 hours after electroporation, 0.5 μg/ml puromycin were added to the culture medium. After 3 days of puromycin selection, hPSCs were switched to their normal culture medium and fed every other day until approximately 1-2 weeks after electroporation when distinct colonies were established. • Cell transplantation: Small aggregates of NE neural progenitors (day 10-day 12) were collected and suspended in artificial cerebral spinal fluid (aCSF) containing Rock inhibitor (0.5 μM), at a concentration of 100,000 cells/μl. 1 μl of cells were slowly injected into the left cortex (AP=+0.0 mm, ML=+1.8 mm, DV=−1.7 mm, from skull) of adult SCID mice (8-12 weeks) that were anesthetized with 1%-2% isoflurane mixed in oxygen. • Immunocytochemistry and flow cytometry: Immunocytochemistry was performed as described previously. See Huang et al., 2016, Sci Rep, 6:32600, doi:10.1038/srep32600. In brief, cells on coverslips were fixed in 4% neutral-buffered paraformaldehyde (PFA) for 10 minutes (min) at room temperature. Following rinsing with PBS, these cells were incubated in 0.2% Triton X-100 (in phosphate buffered saline (PBS)) for 10 min followed by 10% donkey serum (in PBS) at room temperature for 1 hour (h). The cells were then incubated with primary antibodies diluted in 5% donkey serum in 0.1% Triton X100 (in PBS) at 4° C. overnight, followed by fluorescently conjugated secondary antibodies at room temperature for 30 min. The nuclei were stained with Hoechst. Images were collected with a Nikon A1 laser-scanning confocal microscope. Flow cytometry was performed using Transcription Factor Buffer Set which is designed for transcription factor staining following manufacturer's instruction. Briefly, single cells were prepared using TrypLE Express Enzyme and fixed in the fixation buffer provided by the kit at 2-8° C. for 45 min. After 3 washings with the permeable buffer, primary antibodies were added to cells for 45 min at 2-8° C. in a light-tight box. Cells were washed three times before fluorescently conjugated secondary antibodies. Second antibodies were incubated with cells for 45 minutes at 2-8° C. in a light-tight box and followed by washing three times. After the last wash, cells were suspended in washing buffer and analyzed by flow cytometry (BD LSR or BD LSRII). Data analysis was performed using FlowJo. • ELISA: To detect NE release into medium during neuronal differentiation, supernatant was collected at indicated time points along differentiation. Enzyme-linked immunosorbent assay (ELISA) were performed using a Noradrenaline (Norepinephrine) ELISA Assay Kit (EAGLE, NOR31-K01) following the manufacturer's instructions. • Electrophysiology: Whole-cell patch-clamp recordings were made from human ESC-derived NE neurons at 4 weeks. Briefly, the NE neurons were held at −70 mV to record the Na+/K+ channel activities with voltage-clamp model. For recording action potentials, the cells were held at 0 pA with the current-clamp model, and with the steps of injected currents from −50 pA to +50 pA. The bath solution consisted of 135 mM NaCl, 3 mM KCl, 2 mM CaCl2), 1 mM MgCl2, 10 mM HEPES, 11 mM glucose, 10 mM sucrose, pH7.4. […]
# [2] = tested on: GRABNE1m sensor-expressing NE neurons; test: Fluorescence imaging of GRABNE1m sensor cells; details: 1 μM
# [3] = tested on: hindbrain R1 neuroepithelial cells; test: NE progenitor fate specification of hindbrain R1 neuroepithelial cells (qPCR of MASH1, PHOX2B, PHOX2A and regional markers); details: for effect on expression of MASH1, PHOX2B, and PHOX2A: day 6 to day 12
# Text: as §1
# Development of NE neurons in LC depends on expression of Mash1, Phox2b and Phox2a in a stage dependent manner. See Pattyn et al., 2000, Mol Cell Neurosci, 15:235-243; Morin et al., 1997, Neuron, 18:411-423; Hirsch et al., 1998, Development, 125:599-608. Mash1 is expressed in the proliferative progenitor cells, while Phox2b and Phox2a are expressed when cells became postmitotic precursors and neurons. Pattyn et al., 2000. […] Thus, the effects of FGF8 and BMPs were tested in the second week of differentiation (FIG. 2B).
# In further experiments it was determined whether the unique role of Activin A on human NE neuron specification was regional identity dependent. Neuroepithelial cells ranging from anterior forebrain to posterior hindbrain were obtained using different doses of CHIR99021, and then these neuroepithelial cells were treated with 25 ng/ml Activin A for 6 days.
# Specifically, gene expression of MASH1 and PHOX2A/2B at different times was observed when NE progenitors were cultured in the presence of a low dose of Activin A (25 ng/ml) or a high dose of Activin A (125 ng/ml).
# To determine whether blockade of BMP pathway or SHH pathway could facilitate NE specification, which could narrow the domain along the dorsal to ventral axis, hindbrain R1 neuroepithelial cells were treated with Activin A with or without BMP and SHH antagonist (FIGS. 3D-3I).
molecule,measurement,setting,value
Cc1c[nH]c(-c2cnc(NCCNc3ccc(C#N)cn3)nc2-c2ccc(Cl)cc2Cl)n1 [CHIR99021],cells expressing EN1 by immunocytochemistry,"[1]; 1 μM, day 6",majority of the cells
same,cells positive for OTX2 and HOXA2 by immunocytochemistry,"[1]; 1 μM, day 6",few or no cells
same,"concentration above which EN1, EN2, PAX2 mRNA began to down-regulate and HOXA2, GBX2 increased","[1]; 6 days, mRNA level",above 0.6 μM
same,concentration at which PHOX2B and PHOX2A reached their highest level,"[1]; dose increment, 6 days",around 1 μM
same,"expression of midbrain transcription factor genes EN1, EN2, PAX2",[1]; increasing concentrations over 6 days,upregulated
same,expression of OTX2 at mRNA and protein levels,"[1]; increasing concentrations over 6 days, RT-qPCR and flow cytometry",down-regulated
NC[C@H](O)c1ccc(O)c(O)c1 [Norepinephrine],intensity of GRABNE1m sensor fluorescence,[2],increased
TGF-β1: transforming growth factor β1,"effect on expression of MASH1, PHOX2B, and PHOX2A",[3]; 10 ng/ml,not
"CC(C)Oc1ccc(-c2cnc3c(-c4ccnc5ccccc45)cnn3c2)cc1 [DMH1, 4-[6-(4-Isopropoxyphenyl)pyrazolo[1,5-a]pyrimidin-3-yl]quinoline]",increase of NE progenitor markers,"[3]; 2 μM, with Activin A",1.5 fold
CC1=C2C[C@H]3[C@@H](CC=C4C[C@@H](O)CC[C@@]43C)[C@@H]2CC[C@]12O[C@@H]1C[C@H](C)CN[C@H]1[C@H]2C [cyclopamine],effect on NE progenitor markers MASH1 and PHOX2A/2B,"[3]; 2 μM, with Activin A",only minor effects
same,expression of dorsal markers MATH1 and OLIG3,"[3]; 2 μM, with Activin A",increased expression
B1,"effect on expression of MASH1, PHOX2B, and PHOX2A",[3]; 10 ng/ml,no obvious effects
B2,"effect on expression of MASH1, PHOX2B, and PHOX2A",[3]; 10 ng/ml,no obvious effects
B3,"effect on expression of MASH1, PHOX2B, and PHOX2A",[3]; 100 ng/ml,no obvious effects
B4,"effect on expression of MASH1, PHOX2B, and PHOX2A",[3]; 10 ng/ml,no obvious effects
B5,concentration at which MASH1 reached maximum expression level,[3],25 ng/mL
same,concentration at which PHOX2B and PHOX2A reached maximum level,[3],250 ng/mL
same,"effect on expression of MASH1, PHOX2B, and PHOX2A",[3]; 10 ng/ml,positive effect
same,"PHOX2B expression, high dose (125 ng/ml) versus low dose (25 ng/ml)",[3]; day 9,similar
same,"MASH1 expression, high dose (125 ng/ml) versus low dose (25 ng/ml)",[3]; day 9 to day 12,no obvious difference
same,"PHOX2B expression, high dose (125 ng/ml) versus low dose (25 ng/ml)",[3]; day 12,over 2 fold
same,"increase of MASH1, PHOX2B, and PHOX2A expression with dose",[3]; series of Activin A concentrations,dose-dependent manner
